According to article PMC5762315, “Inhibition of polo-like kinase 4 (PLK4): a new therapeutic option for rhabdoid tumors and pediatric medulloblastoma” (Oncotarget, 2017):
Values joined by “and” are separate entries in the source; they are usually repeats but may differ in a detail not shown here. Equal entries are not always repeated.

Key:
Test in all cases: biochemical
Assay type in all cases: biochemical
[1] = target: various kinases (Homo sapiens, UniProt O14757); details: CHEK1 (CHK1)
[2] = target: various kinases (Homo sapiens, UniProt O43293); details: DAPK3 (ZIPK)
[3] = target: various kinases (Homo sapiens, UniProt O76039); details: CDKL5
[4] = target: various kinases (Homo sapiens, UniProt P00533, L858R/T790M); details: EGFR (ErbB1) T790M L858R
[5] = target: various kinases (Homo sapiens, UniProt P06241); details: FYN
[6] = target: various kinases (Homo sapiens, UniProt P06493); details: CDK1/cyclin B
[7] = target: various kinases (Homo sapiens, UniProt P07947); details: kinase YES1; ZLYTE
[8] = target: various kinases (Homo sapiens, UniProt P07948); details: LYN A
[9] = target: various kinases (Homo sapiens, UniProt P28482); details: MAPK1 (ERK2)
[10] = target: various kinases (Homo sapiens, UniProt P29323); details: EPHB2
[11] = target: various kinases (Homo sapiens, UniProt P43405); details: kinase SYK; ZLYTE
[12] = target: various kinases (Homo sapiens, UniProt P49759); details: CLK1
[13] = target: various kinases (Homo sapiens, UniProt P54760); details: EPHB4
[14] = target: various kinases (Homo sapiens, UniProt P78368); details: CSNK1G2 (CK1 gamma 2)
[15] = target: various kinases (Homo sapiens, UniProt Q02750); details: MAP2K1 (MEK1)
[16] = target: various kinases (Homo sapiens, UniProt Q06187); details: BTK
[17] = target: various kinases (Homo sapiens, UniProt Q12851); details: MAP4K2 (GCK)
[18] = target: various kinases (Homo sapiens, UniProt Q13153); details: PAK1
[19] = target: various kinases (Homo sapiens, UniProt Q13627); details: DYRK1A
[20] = target: various kinases (Homo sapiens, UniProt Q13882); details: kinase PTK6 (Brk); ZLYTE
[21] = target: T1, various kinases (Homo sapiens, UniProt Q15139); details: kinase PRKD1 (PKC mu); ZLYTE
T1 sequence (Q15139 1-912): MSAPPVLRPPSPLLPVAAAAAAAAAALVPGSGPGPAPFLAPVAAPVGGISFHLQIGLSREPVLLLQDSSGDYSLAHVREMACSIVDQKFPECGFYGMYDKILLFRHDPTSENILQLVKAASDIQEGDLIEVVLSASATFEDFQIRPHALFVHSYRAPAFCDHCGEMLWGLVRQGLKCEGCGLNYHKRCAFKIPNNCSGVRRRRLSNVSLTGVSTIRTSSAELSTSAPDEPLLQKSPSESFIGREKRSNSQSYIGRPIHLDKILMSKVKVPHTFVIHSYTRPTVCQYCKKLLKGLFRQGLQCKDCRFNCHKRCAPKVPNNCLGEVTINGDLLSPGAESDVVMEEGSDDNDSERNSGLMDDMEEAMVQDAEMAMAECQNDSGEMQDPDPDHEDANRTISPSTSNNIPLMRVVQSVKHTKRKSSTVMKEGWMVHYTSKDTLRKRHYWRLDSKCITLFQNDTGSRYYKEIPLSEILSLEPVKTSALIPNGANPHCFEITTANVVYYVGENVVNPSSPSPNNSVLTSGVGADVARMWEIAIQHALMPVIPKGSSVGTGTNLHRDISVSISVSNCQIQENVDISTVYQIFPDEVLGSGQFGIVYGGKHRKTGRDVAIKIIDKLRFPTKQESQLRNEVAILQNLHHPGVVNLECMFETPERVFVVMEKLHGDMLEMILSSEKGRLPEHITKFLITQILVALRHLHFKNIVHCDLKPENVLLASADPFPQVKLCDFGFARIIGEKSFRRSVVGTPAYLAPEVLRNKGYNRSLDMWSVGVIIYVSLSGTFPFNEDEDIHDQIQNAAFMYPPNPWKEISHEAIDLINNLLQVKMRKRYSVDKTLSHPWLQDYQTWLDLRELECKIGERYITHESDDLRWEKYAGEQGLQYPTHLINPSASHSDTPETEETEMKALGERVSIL

[22] = target: various kinases (Homo sapiens, UniProt Q16816); details: PHKG1
[23] = target: various kinases (Homo sapiens, UniProt Q8IY84); details: NIM1K
[24] = target: various kinases (Homo sapiens, UniProt Q8TDX7); details: NEK7
[25] = target: various kinases (Homo sapiens, UniProt Q9H0K1); details: kinase SNF1LK2; ZLYTE
[26] = target: various kinases (Homo sapiens, UniProt Q9H4B4); details: kinase PLK3; ZLYTE
[27] = target: various kinases (Homo sapiens, UniProt Q9HCP0); details: CSNK1G1 (CK1 gamma 1)
Wherever % Inhibition Average is given: test concentration or dose not given here.
Wherever % Inhibition Duplicate #1 is given: test concentration or dose not given here.
Wherever % Inhibition Duplicate #2 is given: test concentration or dose not given here.

Chain of various kinases (Homo sapiens, UniProt Q9H0K1) (Q9H0K1 whole entry): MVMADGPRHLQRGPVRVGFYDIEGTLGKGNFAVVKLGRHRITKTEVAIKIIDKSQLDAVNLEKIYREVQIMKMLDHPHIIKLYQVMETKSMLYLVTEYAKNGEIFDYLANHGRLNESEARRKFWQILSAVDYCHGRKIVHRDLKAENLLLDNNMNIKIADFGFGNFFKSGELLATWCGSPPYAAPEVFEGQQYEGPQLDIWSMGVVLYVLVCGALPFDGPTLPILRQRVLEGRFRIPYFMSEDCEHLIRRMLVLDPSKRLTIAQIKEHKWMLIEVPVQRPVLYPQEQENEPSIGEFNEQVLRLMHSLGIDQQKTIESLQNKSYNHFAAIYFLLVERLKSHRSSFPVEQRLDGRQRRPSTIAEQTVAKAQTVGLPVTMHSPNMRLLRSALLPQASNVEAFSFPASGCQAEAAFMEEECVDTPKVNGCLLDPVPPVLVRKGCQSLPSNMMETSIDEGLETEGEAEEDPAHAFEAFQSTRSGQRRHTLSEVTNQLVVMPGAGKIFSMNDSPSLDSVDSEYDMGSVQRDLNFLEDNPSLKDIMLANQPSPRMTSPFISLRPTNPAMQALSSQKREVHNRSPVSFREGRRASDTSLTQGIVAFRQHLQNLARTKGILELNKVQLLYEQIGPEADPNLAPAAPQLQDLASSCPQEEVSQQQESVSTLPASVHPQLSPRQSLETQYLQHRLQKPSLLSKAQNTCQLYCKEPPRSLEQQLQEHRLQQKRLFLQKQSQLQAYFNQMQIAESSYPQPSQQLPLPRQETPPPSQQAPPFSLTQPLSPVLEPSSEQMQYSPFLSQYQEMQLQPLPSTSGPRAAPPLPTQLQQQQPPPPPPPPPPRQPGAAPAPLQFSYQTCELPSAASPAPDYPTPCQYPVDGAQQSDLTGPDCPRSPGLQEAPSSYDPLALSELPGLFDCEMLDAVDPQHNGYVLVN
Chain of various kinases (Homo sapiens, UniProt Q9H4B4) (Q9H4B4 whole entry): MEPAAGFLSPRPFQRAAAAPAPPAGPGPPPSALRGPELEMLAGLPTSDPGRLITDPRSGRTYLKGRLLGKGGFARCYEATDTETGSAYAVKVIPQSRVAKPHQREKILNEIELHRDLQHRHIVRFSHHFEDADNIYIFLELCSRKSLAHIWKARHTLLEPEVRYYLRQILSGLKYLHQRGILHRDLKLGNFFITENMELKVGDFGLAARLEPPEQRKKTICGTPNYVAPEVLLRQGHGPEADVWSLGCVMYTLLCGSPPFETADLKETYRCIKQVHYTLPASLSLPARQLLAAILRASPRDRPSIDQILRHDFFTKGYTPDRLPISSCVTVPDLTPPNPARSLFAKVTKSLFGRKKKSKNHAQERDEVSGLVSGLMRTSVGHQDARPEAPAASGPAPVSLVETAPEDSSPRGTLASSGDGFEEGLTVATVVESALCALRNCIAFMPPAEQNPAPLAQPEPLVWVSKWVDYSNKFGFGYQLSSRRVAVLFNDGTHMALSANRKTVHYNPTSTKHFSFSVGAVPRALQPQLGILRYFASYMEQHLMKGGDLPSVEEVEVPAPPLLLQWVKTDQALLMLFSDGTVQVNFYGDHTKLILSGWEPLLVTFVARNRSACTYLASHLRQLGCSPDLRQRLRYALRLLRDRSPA
Chain of various kinases (Homo sapiens, UniProt P07947) (P07947 whole entry): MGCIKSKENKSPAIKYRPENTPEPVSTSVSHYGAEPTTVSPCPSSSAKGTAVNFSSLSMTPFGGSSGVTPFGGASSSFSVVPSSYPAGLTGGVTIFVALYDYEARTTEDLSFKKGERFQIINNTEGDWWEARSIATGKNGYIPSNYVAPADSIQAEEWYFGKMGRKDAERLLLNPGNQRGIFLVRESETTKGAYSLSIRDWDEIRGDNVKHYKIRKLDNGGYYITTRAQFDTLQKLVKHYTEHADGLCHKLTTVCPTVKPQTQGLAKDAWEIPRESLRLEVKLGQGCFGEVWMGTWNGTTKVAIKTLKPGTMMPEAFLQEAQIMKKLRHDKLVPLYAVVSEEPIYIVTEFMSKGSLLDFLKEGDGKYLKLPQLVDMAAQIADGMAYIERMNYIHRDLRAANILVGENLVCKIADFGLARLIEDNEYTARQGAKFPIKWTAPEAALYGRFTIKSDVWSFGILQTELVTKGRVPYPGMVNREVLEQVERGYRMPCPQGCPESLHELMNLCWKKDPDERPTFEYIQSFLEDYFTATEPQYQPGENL
Chain of various kinases (Homo sapiens, UniProt Q13882) (Q13882 whole entry): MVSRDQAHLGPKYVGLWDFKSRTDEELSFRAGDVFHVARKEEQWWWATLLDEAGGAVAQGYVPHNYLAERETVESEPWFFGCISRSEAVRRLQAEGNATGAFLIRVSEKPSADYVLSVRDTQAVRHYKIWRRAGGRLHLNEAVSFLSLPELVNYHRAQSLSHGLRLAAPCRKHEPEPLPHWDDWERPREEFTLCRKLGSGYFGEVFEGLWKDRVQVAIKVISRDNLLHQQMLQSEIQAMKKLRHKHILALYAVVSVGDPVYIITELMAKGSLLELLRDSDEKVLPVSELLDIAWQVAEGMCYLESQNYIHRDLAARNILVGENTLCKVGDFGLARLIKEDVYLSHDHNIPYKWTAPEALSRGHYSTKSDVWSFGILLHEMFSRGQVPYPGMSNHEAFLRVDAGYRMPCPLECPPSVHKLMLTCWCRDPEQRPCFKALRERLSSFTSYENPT
Chain of various kinases (Homo sapiens, UniProt O14757) (O14757 whole entry): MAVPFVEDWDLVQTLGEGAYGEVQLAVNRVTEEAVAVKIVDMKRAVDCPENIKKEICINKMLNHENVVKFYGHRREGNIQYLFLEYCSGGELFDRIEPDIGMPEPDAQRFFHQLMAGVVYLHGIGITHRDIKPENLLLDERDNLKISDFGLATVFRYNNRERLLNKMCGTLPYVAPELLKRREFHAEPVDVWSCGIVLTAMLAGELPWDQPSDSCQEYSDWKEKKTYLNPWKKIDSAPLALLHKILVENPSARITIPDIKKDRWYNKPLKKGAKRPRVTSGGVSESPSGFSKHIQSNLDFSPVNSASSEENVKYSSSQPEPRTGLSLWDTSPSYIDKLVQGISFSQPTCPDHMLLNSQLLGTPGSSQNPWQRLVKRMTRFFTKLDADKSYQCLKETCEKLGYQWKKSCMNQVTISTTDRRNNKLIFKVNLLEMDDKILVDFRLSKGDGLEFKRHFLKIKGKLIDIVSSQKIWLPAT
Chain of various kinases (Homo sapiens, UniProt P54760) (P54760 16-987): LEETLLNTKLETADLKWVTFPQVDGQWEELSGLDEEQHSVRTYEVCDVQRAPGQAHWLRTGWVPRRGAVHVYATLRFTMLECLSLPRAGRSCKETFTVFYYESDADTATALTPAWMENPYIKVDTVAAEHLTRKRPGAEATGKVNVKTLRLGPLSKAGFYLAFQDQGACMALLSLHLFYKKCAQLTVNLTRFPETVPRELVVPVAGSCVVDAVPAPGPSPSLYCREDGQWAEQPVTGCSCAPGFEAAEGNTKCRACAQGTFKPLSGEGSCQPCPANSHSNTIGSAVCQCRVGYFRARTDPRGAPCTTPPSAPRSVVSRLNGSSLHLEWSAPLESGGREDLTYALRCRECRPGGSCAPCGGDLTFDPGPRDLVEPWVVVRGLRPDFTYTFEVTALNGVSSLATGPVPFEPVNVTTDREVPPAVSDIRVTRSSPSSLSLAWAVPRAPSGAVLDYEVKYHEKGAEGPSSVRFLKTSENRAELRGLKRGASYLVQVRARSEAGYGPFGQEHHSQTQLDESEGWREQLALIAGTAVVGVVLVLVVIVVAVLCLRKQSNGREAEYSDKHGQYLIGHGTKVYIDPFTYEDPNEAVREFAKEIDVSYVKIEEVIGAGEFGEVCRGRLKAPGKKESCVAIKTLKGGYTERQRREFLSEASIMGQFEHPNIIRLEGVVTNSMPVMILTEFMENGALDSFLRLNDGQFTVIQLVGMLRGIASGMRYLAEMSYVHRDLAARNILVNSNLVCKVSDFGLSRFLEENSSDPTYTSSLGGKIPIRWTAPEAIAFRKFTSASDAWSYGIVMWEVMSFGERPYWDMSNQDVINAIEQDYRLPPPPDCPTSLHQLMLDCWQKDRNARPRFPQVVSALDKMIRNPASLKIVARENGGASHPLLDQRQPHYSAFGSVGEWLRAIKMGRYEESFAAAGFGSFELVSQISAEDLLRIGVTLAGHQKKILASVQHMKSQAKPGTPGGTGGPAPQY
Chain of various kinases (Homo sapiens, UniProt P06493) (P06493 whole entry): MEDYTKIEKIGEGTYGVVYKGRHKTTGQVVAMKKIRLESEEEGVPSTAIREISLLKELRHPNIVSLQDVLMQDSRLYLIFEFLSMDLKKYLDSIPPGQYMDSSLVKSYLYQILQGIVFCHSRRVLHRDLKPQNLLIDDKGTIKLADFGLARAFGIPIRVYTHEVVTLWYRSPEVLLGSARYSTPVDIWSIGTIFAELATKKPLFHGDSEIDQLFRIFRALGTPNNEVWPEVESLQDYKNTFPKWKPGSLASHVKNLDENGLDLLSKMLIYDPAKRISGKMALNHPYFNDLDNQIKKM
Chain of various kinases (Homo sapiens, UniProt Q16816) (Q16816 whole entry): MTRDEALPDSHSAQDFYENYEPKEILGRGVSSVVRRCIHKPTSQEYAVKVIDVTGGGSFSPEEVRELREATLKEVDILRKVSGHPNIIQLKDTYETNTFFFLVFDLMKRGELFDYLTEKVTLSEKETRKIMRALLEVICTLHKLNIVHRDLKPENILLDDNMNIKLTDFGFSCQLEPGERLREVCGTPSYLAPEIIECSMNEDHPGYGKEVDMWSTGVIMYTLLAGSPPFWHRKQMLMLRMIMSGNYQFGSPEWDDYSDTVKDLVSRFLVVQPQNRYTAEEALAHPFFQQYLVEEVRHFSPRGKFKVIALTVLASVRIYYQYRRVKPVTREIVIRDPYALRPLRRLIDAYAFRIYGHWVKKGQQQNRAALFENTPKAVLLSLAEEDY
Chain of various kinases (Homo sapiens, UniProt Q8TDX7) (Q8TDX7 whole entry): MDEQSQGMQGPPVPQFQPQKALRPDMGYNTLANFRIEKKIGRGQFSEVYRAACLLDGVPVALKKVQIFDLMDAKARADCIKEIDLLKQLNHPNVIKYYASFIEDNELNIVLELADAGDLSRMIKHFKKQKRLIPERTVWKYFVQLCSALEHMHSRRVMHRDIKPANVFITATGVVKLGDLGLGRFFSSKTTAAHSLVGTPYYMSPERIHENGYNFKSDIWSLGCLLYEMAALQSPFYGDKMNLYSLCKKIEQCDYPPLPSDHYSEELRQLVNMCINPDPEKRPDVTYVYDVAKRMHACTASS

COc1ccc2c(c1)[C@]1(C[C@H]1c1ccc3c(/C=C/c4ccc(CN5C[C@@H](C)O[C@@H](C)C5)cc4)n[nH]c3c1)C(=O)N2 [CFI-400945]
% Inhibition [1]: 9% and 11% | % Inhibition [2]: 1% and 2% | % Inhibition [3]: 5% | % Inhibition [4]: 5% and 4% | % Inhibition [5]: 6% and 5% | % Inhibition [6]: 16% and 12% | % Inhibition Average [7]: 17% | % Inhibition Duplicate #1 [7]: 16% | % Inhibition Duplicate #2 [7]: 18% | % Inhibition [8]: 11% and 14% | % Inhibition [9]: 9% and 7% | % Inhibition [10]: 5% | % Inhibition Average [11]: 11% | % Inhibition Duplicate #1 [11]: 11% | % Inhibition Duplicate #2 [11]: 11% | % Inhibition [12]: -1% | % Inhibition [13]: 5% and 8% | % Inhibition [14]: 1% and 3% | % Inhibition [15]: 9% | % Inhibition [16]: 6% and 3% | % Inhibition [17]: 43% and 39% | % Inhibition [18]: 11% and 6% | % Inhibition [19]: 2% and 4% | % Inhibition Average [20]: 4% | % Inhibition Duplicate #1 [20]: 5% | % Inhibition Duplicate #2 [20]: 3% | % Inhibition Average [21]: 0% | % Inhibition Duplicate #1 [21]: -1% | % Inhibition Duplicate #2 [21]: 1% | % Inhibition [22]: 10% and 7% | % Inhibition [23]: 2% and 3% | % Inhibition [24]: 0% and 6% | % Inhibition Average [25]: 5% | % Inhibition Duplicate #1 [25]: 4% | % Inhibition Duplicate #2 [25]: 5% | % Inhibition Average [26]: -2% | % Inhibition Duplicate #1 [26]: -7% | % Inhibition Duplicate #2 [26]: 3% | % Inhibition [27]: -1% and 3%
